Values of other authors as cited in US20060040003A1, “Dietary supplement for supressing appetite, enhancing and extending satiety, improving glycemic control, and stimulant free” (priority 2004, published 2006).

Biological target: T1, plasma albumin (Homo sapiens, UniProt P02768)
T1 construct: host or cells: blood plasma (circulation)
T1 sequence (P02768 25-609): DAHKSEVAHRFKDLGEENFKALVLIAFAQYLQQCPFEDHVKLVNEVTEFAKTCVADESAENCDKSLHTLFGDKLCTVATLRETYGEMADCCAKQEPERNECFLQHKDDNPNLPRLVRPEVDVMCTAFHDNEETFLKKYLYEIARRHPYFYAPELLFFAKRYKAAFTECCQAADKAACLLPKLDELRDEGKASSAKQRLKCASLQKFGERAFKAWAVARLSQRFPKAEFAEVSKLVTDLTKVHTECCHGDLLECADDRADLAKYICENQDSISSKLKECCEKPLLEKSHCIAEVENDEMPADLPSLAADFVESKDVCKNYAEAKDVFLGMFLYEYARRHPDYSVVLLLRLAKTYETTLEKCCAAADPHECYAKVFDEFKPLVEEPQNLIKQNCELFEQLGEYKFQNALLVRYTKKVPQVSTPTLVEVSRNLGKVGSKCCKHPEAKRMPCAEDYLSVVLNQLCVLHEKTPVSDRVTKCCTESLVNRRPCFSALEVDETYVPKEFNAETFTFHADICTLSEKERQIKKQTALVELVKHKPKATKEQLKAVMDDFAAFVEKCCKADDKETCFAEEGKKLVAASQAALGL

N[C@@H](Cc1c[nH]c2ccccc12)C(=O)O [tryptophane]
circulating in the blood as free tryptophane: 20%
